Converted amounts (≈) assume the structure as drawn.

Test [1] deals with PAF-induced platelet aggregation. In words: Inhibitory activity of essential oils on PAF-induced platelet aggregation. The class given is cell-based, New Zealand rabbit. The conditions noted are these: rabbit washed platelet suspension, PAF added 2 min after sample, aggregation observed 4 min. The method, then:
The anticoagulant “acid-citrate-dextrose” (ACD) was added to the blood taken from a New Zealand rabbit in a ratio of 1:6 by volume. The resulting blood was centrifuged at 190 g for 15 min at room temperature. After centrifugation, the supernatant containing platelet-rich plasma (PRP) was taken and 0.2 M EDTA was added. The resulting supernatant was centrifuged at 1000 g for 1.5 min. After centrifugation, the pellet containing RBC and WBC was removed and then PRP was centrifuged at 1000 g for 11 min. After centrifugation, the supernatant was removed and the platelet pellet was suspended in Ca^2+--free Tyrode's buffer (containing 1 mM Ca2+). […] The turbidity was determined with a Platelet Aggregation Chromogenic Kinetic System.
0.5 ml of platelet suspension was added to silicon-coated cuvette and put in a Platelet Aggregation Chromogenic Kinetic System and bathed for 2 min at 37° C. […] The ratio of aggregation was calculated by the following formula: Ratio of aggregation %=(absorptivity before adding PAF−absorptivity after adding PAF/(absorptivity before adding PAF−absorptivity of Tyrode's buffer)×100% The ratio of inhibition was calculated by the following formula: Ratio of inhibition %=100%−(ratio of aggregation of sample/ratio of aggregation of control×100%)

Test [2] relates to mouse macrophage cell line RAW 264.7. In words: Inhibitory effect of essential oils on NO production by LPS-activated mouse macrophage cell line (Griess reagent). The class given is cell-based. Conditions: positive control, concentration not given; LPS (Inducer) 60 ± 0.5, Blank 3.5 ± 0.3. The method, then:
The mouse macrophage cell line RAW 264.7 was purchased from Bioresources Collection & Research Center, Taiwan and numbered CCRC 60001. The cells were added to Dulbecco's Modified Eagle Medium (DMEM, GibcoBRL) containing 10% (v/v) fetal bovine serum (FBS, GibcoBRL) and then incubated in a CO2 incubator containing 5% CO2 at 37° C. The cells grow to 90% density and are then washed with phosphate buffered saline (PBS). The cells were colleted and diluted with fresh DMEM to the appropriate concentration.
The mouse macrophage cells were transferred in a 96-well plate in a concentration of 10,000 cells/well. After incubating for 24 hours, the cells were activated with the medium containing 100 μg/ml Lipopolysaccharide (LPS, SIGMA) and 100·μg/ml Interferon-γ (INF-γ, GibcoBRL). Meanwhile, the essential oils of herbal medicine in different concentrations were added to the wells. After incubating for 24 hours, 50 μl of supernatants were respectively taken and put into a 96-well plate. […] Then, the absorbance of the resulting cell supernatants was determined with a microplate reader at a wavelength of […]. The percentage of nitric oxide can be calculated by the following formula: % nitric oxide=(sample absorptivity/control absorptivity)×100%.

`CCCCCCCCCCCCCCCCCCNC(=O)OCC(COP(=O)([O-])OCC[n+]1ccsc1)OC` (centres unmarked) [CV-3988]: the IC50 (as a rule, the concentration that gives 50% inhibition) in test [1] was 1.42 mg/mL (≈ 2400 µM). `CNC(=N)NCCC[C@H](N)C(=O)O` [L-NMMA] yielded a Nitric oxide in test [2] of 25 ± 0.6 µM.

The values above are taken from US20060003030A1, “Essential oils for treating and/ or preventing allergic disease” (priority 2004, published 2006).
